Experimental data published in US7183075B2, “Purified and isolated potassium-chloride cotransporter nucleic acids and polypeptides and therapeutic and screening methods using same” (Vanderbilt University, priority 2000, dated 2007).

Key:
[1] = biological target: mKCC4 mutant C256A/C469N/C565A/C647M/C633S (Mus musculus, UniProt Q9WVL3, C257A/C469N/C565A/C633S/C647M)
Procedure: (§1) Mercury is known to inhibit several transporters via interaction with transmembrane or juxtamembrane cysteines (Kuwahara et al. (1997) Biochemistry 36:13973–13978; Jacoby (1999) Am J Physiol 277:C684–692). Given the inhibition of the KCCs by millimolar NEM at room temperature, presumed due to alkylation of cysteine residues (Mercado et al. (2000) J Biol Chem 275:30326–3034), the differential response of the KCCs to 50 μM mercury (Hg—Cl2) was examined. […] Of note, a cysteine residue in TM11 of NKCC1 is involved in the response of Na^+—K^+-2Cl^− cotransport to mercury (Jacoby (1999) Am J Physiol 277:C684–692).

[2] = biological target: mKCC4 mutant C256A/C469N/C565A/C647M (Mus musculus, UniProt Q9WVL3, C257A/C469N/C565A/C647M)
Procedure: as §1

Chain of mKCC4 mutant C256A/C469N/C565A/C647M (Q9WVL3 whole entry C257A/C469N/C565A/C647M): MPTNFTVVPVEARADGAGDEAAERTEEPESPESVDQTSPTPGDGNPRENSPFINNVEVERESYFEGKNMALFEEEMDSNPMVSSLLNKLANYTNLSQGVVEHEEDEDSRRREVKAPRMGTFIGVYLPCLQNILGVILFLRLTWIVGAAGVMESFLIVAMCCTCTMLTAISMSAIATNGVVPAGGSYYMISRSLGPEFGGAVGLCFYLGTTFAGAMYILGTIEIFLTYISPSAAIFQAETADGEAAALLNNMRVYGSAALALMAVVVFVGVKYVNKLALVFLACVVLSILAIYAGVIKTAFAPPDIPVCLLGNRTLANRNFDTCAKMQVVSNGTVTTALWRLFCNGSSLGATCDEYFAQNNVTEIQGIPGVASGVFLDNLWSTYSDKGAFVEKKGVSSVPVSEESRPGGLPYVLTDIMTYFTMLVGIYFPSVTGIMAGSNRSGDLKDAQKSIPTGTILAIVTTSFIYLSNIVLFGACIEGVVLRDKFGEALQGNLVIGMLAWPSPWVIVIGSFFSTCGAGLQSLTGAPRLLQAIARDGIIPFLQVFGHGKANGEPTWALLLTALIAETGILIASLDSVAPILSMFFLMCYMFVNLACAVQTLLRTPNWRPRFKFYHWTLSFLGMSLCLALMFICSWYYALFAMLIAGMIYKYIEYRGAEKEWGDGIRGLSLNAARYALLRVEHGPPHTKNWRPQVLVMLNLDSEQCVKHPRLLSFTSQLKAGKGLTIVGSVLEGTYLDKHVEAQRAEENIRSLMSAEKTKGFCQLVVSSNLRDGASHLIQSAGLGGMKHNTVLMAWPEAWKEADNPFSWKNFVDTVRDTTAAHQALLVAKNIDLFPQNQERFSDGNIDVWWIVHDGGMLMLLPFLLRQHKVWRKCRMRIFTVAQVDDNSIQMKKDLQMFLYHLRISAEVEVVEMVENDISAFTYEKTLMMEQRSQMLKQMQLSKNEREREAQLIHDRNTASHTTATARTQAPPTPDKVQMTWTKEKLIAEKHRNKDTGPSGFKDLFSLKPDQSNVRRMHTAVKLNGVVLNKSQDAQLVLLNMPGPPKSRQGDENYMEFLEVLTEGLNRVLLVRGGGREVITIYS
Chain of mKCC4 mutant C256A/C469N/C565A/C647M/C633S (Q9WVL3 whole entry C257A/C469N/C565A/C633S/C647M): as the sequence (Q9WVL3 whole entry C257A/C469N/C565A/C647M) above, with C633S counted along it

Q: How did the “response of quintuple mutant mKCC4 to HgCl2” value [1] turn out when HgCl2 [Hg—Cl2] was run?
A: The value was “resistant”.

Q: What about the “response of quadruple mutant mKCC4 to HgCl2” value [2] of the same substance?
A: Its value is “weakly sensitive”.
